Assay results: the NIST ThermoML archive (doi:10.1021/je300692s)
± gives the expanded uncertainty stated by the source.

Experiment: activity coefficient (dimensionless); of the first substance listed, at infinite dilution; xn = mol fraction of the nth substance listed
Conditions: 101 kPa, Liquid, Chromatography, x1 = 0

| SMILES | activity coefficient (322.9 K) | activity coefficient (333 K) | activity coefficient (343.1 K) | activity coefficient (322.6 K) | activity coefficient (332.5 K) | activity coefficient (342.8 K) | activity coefficient (323 K) |
| --- | --- | --- | --- | --- | --- | --- | --- |
| C[N+](=O)[O-] [nitromethane] + CCCCCC[N+]1(C)CCCC1.O=S(=O)([N-]S(=O)(=O)C(F)(F)F)C(F)(F)F | 0.57 ± 0.06 | 0.57 ± 0.06 | 0.56 ± 0.06 |  |  |  |  |
| CCC(=O)CC [pentan-3-one] + CCCCCCCCCC[N+]1(C)CCCC1.O=S(=O)([N-]S(=O)(=O)C(F)(F)F)C(F)(F)F |  |  |  | 0.47 ± 0.05 | 0.48 ± 0.05 | 0.5 ± 0.06 |  |
| CCO [ethanol] + CCCCCC[N+]1(C)CCCC1.O=S(=O)([N-]S(=O)(=O)C(F)(F)F)C(F)(F)F | 1.41 ± 0.15 | 1.4 ± 0.14 | 1.31 ± 0.13 |  |  |  |  |
| CC(C)O [propan-2-ol] + CCCCCCCC[N+]1(C)CCCC1.O=S(=O)([N-]S(=O)(=O)C(F)(F)F)C(F)(F)F |  | 1.27 ± 0.13 | 1.06 ± 0.11 |  |  |  | 1.4 ± 0.14 |
| CCC(C)CC [3-methylpentane] + CCCCCCCCCC[N+]1(C)CCCC1.O=S(=O)([N-]S(=O)(=O)C(F)(F)F)C(F)(F)F |  |  |  | 3.65 ± 0.38 | 3.36 ± 0.35 | 3.4 ± 0.36 |  |
| Cc1ccccc1C [1,2-dimethylbenzene] + CCCCCC[N+]1(C)CCCC1.O=S(=O)([N-]S(=O)(=O)C(F)(F)F)C(F)(F)F | 1.17 ± 0.12 | 1.28 ± 0.13 | 1.31 ± 0.13 |  |  |  |  |
| c1ccncc1 [pyridine] + CCCCCC[N+]1(C)CCCC1.O=S(=O)([N-]S(=O)(=O)C(F)(F)F)C(F)(F)F | 0.52 ± 0.06 | 0.52 ± 0.06 | 0.53 ± 0.06 |  |  |  |  |
| CC(C)OC(C)C [diisopropyl ether] + CCCCCCCC[N+]1(C)CCCC1.O=S(=O)([N-]S(=O)(=O)C(F)(F)F)C(F)(F)F |  | 2.58 ± 0.27 | 2.26 ± 0.24 |  |  |  | 2.57 ± 0.27 |
| CCO [ethanol] + CCCCCCCC[N+]1(C)CCCC1.O=S(=O)([N-]S(=O)(=O)C(F)(F)F)C(F)(F)F |  | 1.26 ± 0.13 | 0.98 ± 0.1 |  |  |  | 1.33 ± 0.14 |
| CC(C)OC(C)C [diisopropyl ether] + CCCCCCCCCC[N+]1(C)CCCC1.O=S(=O)([N-]S(=O)(=O)C(F)(F)F)C(F)(F)F |  |  |  | 2.29 ± 0.24 | 2.28 ± 0.24 | 2.26 ± 0.24 |  |
| Cc1cccc(C)c1 [1,3-dimethylbenzene] + CCCCCCCC[N+]1(C)CCCC1.O=S(=O)([N-]S(=O)(=O)C(F)(F)F)C(F)(F)F |  | 0.84 ± 0.09 | 1.05 ± 0.11 |  |  |  | 1 ± 0.1 |
| CCc1ccccc1 [ethylbenzene] + CCCCCC[N+]1(C)CCCC1.O=S(=O)([N-]S(=O)(=O)C(F)(F)F)C(F)(F)F | 1.38 ± 0.14 | 1.43 ± 0.15 | 1.46 ± 0.15 |  |  |  |  |
| CCC(=O)CC [pentan-3-one] + CCCCCC[N+]1(C)CCCC1.O=S(=O)([N-]S(=O)(=O)C(F)(F)F)C(F)(F)F | 0.47 ± 0.05 | 0.6 ± 0.06 | 0.62 ± 0.07 |  |  |  |  |
| ClC(Cl)(Cl)Cl [tetrachloromethane] + CCCCCCCC[N+]1(C)CCCC1.O=S(=O)([N-]S(=O)(=O)C(F)(F)F)C(F)(F)F |  | 1.3 ± 0.13 | 1.15 ± 0.12 |  |  |  | 1.39 ± 0.14 |
| c1ccsc1 [thiophene] + CCCCCCCCCC[N+]1(C)CCCC1.O=S(=O)([N-]S(=O)(=O)C(F)(F)F)C(F)(F)F |  |  |  | 0.6 ± 0.06 | 0.6 ± 0.06 | 0.61 ± 0.07 |  |
| CO [methanol] + CCCCCC[N+]1(C)CCCC1.O=S(=O)([N-]S(=O)(=O)C(F)(F)F)C(F)(F)F | 0.94 ± 0.1 | 1.77 ± 0.18 | 0.95 ± 0.1 |  |  |  |  |
| ClCCl [dichloromethane] + CCCCCC[N+]1(C)CCCC1.O=S(=O)([N-]S(=O)(=O)C(F)(F)F)C(F)(F)F | 0.31 ± 0.04 | 0.36 ± 0.04 | 0.35 ± 0.04 |  |  |  |  |

| SMILES | activity coefficient (322.9 K) | activity coefficient (333 K) | activity coefficient (343.1 K) | activity coefficient (322.6 K) | activity coefficient (332.5 K) | activity coefficient (342.8 K) | activity coefficient (323 K) |
| --- | --- | --- | --- | --- | --- | --- | --- |
| CCC[N+](=O)[O-] [1-nitropropane] + CCCCCC[N+]1(C)CCCC1.O=S(=O)([N-]S(=O)(=O)C(F)(F)F)C(F)(F)F | 0.66 ± 0.07 | 0.66 ± 0.07 | 0.65 ± 0.07 |  |  |  |  |
| CCCCCCCCCC [decane] + CCCCCCCC[N+]1(C)CCCC1.O=S(=O)([N-]S(=O)(=O)C(F)(F)F)C(F)(F)F |  | 12.5 ± 0.75 | 11 ± 0.66 |  |  |  | 14.8 ± 0.88 |
| Cc1ccc(C)cc1 [1,4-dimethylbenzene] + CCCCCCCCCC[N+]1(C)CCCC1.O=S(=O)([N-]S(=O)(=O)C(F)(F)F)C(F)(F)F |  |  |  | 1 ± 0.1 | 1.01 ± 0.1 | 1.03 ± 0.1 |  |
| CO [methanol] + CCCCCCCC[N+]1(C)CCCC1.O=S(=O)([N-]S(=O)(=O)C(F)(F)F)C(F)(F)F |  | 1.09 ± 0.11 | 0.71 ± 0.07 |  |  |  | 0.97 ± 0.1 |
| CCC[N+](=O)[O-] [1-nitropropane] + CCCCCCCC[N+]1(C)CCCC1.O=S(=O)([N-]S(=O)(=O)C(F)(F)F)C(F)(F)F |  | 0.52 ± 0.06 | 0.51 ± 0.06 |  |  |  | 0.55 ± 0.06 |
| CCCCCCCCCCC [undecane] + CCCCCCCCCC[N+]1(C)CCCC1.O=S(=O)([N-]S(=O)(=O)C(F)(F)F)C(F)(F)F |  |  |  | 11.7 ± 1.2 | 11.2 ± 1.2 | 10.7 ± 1.1 |  |
| CCCCCCCCCC [decane] + CCCCCC[N+]1(C)CCCC1.O=S(=O)([N-]S(=O)(=O)C(F)(F)F)C(F)(F)F | 26 ± 2.7 | 19 ± 2 | 22.7 ± 2.4 |  |  |  |  |
| ClCCl [dichloromethane] + CCCCCCCC[N+]1(C)CCCC1.O=S(=O)([N-]S(=O)(=O)C(F)(F)F)C(F)(F)F |  | 0.27 ± 0.04 | 0.28 ± 0.04 |  |  |  | 0.26 ± 0.04 |
| CC#N [acetonitrile] + CCCCCC[N+]1(C)CCCC1.O=S(=O)([N-]S(=O)(=O)C(F)(F)F)C(F)(F)F | 0.46 ± 0.05 | 0.46 ± 0.05 | 0.48 ± 0.05 |  |  |  |  |
| Cc1cccc(C)c1 [1,3-dimethylbenzene] + CCCCCC[N+]1(C)CCCC1.O=S(=O)([N-]S(=O)(=O)C(F)(F)F)C(F)(F)F | 1.28 ± 0.13 | 1.39 ± 0.14 | 1.42 ± 0.15 |  |  |  |  |
| CCC(C)CC [3-methylpentane] + CCCCCC[N+]1(C)CCCC1.O=S(=O)([N-]S(=O)(=O)C(F)(F)F)C(F)(F)F | 6.52 ± 0.69 | 6.46 ± 0.68 | 6.37 ± 0.67 |  |  |  |  |
| c1ccccc1 [benzene] + CCCCCC[N+]1(C)CCCC1.O=S(=O)([N-]S(=O)(=O)C(F)(F)F)C(F)(F)F | 0.76 ± 0.08 | 0.77 ± 0.08 | 0.78 ± 0.08 |  |  |  |  |
| Cc1ccccc1 [toluene] + CCCCCC[N+]1(C)CCCC1.O=S(=O)([N-]S(=O)(=O)C(F)(F)F)C(F)(F)F | 1 ± 0.1 | 1.01 ± 0.1 | 1.04 ± 0.11 |  |  |  |  |
| CO [methanol] + CCCCCCCCCC[N+]1(C)CCCC1.O=S(=O)([N-]S(=O)(=O)C(F)(F)F)C(F)(F)F |  |  |  | 1.61 ± 0.17 | 1.32 ± 0.14 | 1.36 ± 0.14 |  |
| CCCCCCCC [octane] + CCCCCCCCCC[N+]1(C)CCCC1.O=S(=O)([N-]S(=O)(=O)C(F)(F)F)C(F)(F)F |  |  |  | 6.13 ± 0.64 | 5.92 ± 0.62 | 5.76 ± 0.61 |  |
| CC1CCCC1 [methylcyclopentane] + CCCCCCCC[N+]1(C)CCCC1.O=S(=O)([N-]S(=O)(=O)C(F)(F)F)C(F)(F)F |  | 3.36 ± 0.35 | 2.84 ± 0.3 |  |  |  | 3.13 ± 0.33 |
